# Source: patent US12285440B2, “APOE4 impairs myelination via altered cholesterol biosynthesis and transport in oligodendroglia” (Massachusetts Institute of Technology, priority 2021, dated 2025)
# Entries after “also recorded” stand apart in the source; their conditions may differ.
# Tests used:
# CYP46A1 = settings: APOE4 oligodendroglia treated two weeks, vs untreated APOE4 controls
# APOE4KI mice [1] = test: Open field task; type: in vivo, mouse; settings: cyclodextrin-treated vs control APOE4KI mice
# Method: (§1) To investigate whether the increased myelination observed in cyclodextrin treated APOE4KI mice could promote functional improvements, the novel object recognition assay was performed to evaluate learning and memory (FIG. 4G)^57.
# (§2) APOE4KI female mice were injected subcutaneously with either 200 μL Cyclodextrin (2 g/kg) or 200 μL saline, twice a week for eight weeks.
# (§3) Mice were placed in an open field arena and allowed to move freely for ten minutes. The total distance moved and time mice spent in the center of the arena was tracked using the EthoVision XT software from Noldus. 24 hours later, mice were then placed into the same arena containing two objects and allowed to freely investigate both for a period of eight minutes. After an interval of four hours, mice were then placed back in the chamber with one novel object and one familiar object. The preference index was calculated by determining how much time an animal spent with its nose interacting with the novel object, divided by the total time an animal spent interacting with either object.
# [2] = test system: APOE4 iPSC-derived oligodendroglia; test: APOE oligodendroglia drug treatment, bodipy-cholesterol and bodipy lipid droplet staining; type: cell-based, human; settings: for total bodipy-cholesterol staining: APOE4 oligodendroglia treated two weeks (Atorvastatin 1 μM, Simvastatin 1 μM, Cyclodextrin 10 mM), compared with APOE3/3 oligodendroglia
# Method: It was reasoned that inhibiting cholesterol biosynthesis and/or facilitating cholesterol transport in APOE4 oligodendrocytes may reduce intracellular accumulation and improve myelination.
# Cells were plated onto a Millipore eight-chamber glass slide, at a density of 250,000 cells per well. Cells were then cultured in Neurobasal media, supplemented with PDGFR-α, NT3 and β-FGF. […] Cells were fixed with 4% PFA, and stained for Bodipy-cholesterol, WGA-555 and DAPI.
# APOE4KI mice [3] = test: Cyclodextrin treatment of APOE4KI mice, TEM of corpus callosum (g-ratio); settings: n=150 neurons, 2 g/kg subcutaneous twice a week for eight weeks, vs control mice
# APOE4KI mice [4] = test: Novel object recognition task; type: in vivo, mouse; settings: female APOE4KI mice, control n=12, cyclodextrin n=14
# Method: as §1, §2, §3
# [5] = test system: APOE4 oligodendroglia/iNeuron co-cultures; test: In vitro myelination assay, oligodendroglia/iNeuron co-cultures, MBP and neurofilament staining; type: cell-based, human; settings: APOE4 co-cultures treated 6 weeks
# Source text: To further investigate the effect of APOE4 on myelination an in vitro model of myelination was developed that employs the genetically controlled isogenic APOE cells derived from CRISPR-edited iPSCs. To achieve this, iPSC-derived oligodendroglia were co-cultured with neurons induced from iPSCs using NGN2 overexpression (iNeurons) in a three-dimensional extracellular matrix that allows each cell type to interact with other cells and self-assemble into tissue-like structures (FIG. 10D). After 2 weeks in these 3D co-cultures, MBP-positive oligodendroglia spread across the culture and engage neurofilament-positive axons (FIG. 10E). After 6 weeks in culture, myelin-associated proteins 04 and Mbp encircled numerous neurofilaments, mimicking biological processes critical to myelination (FIG. 10E). […] Therefore, it was sought to use this in vitro myelination assay to assess the effect of APOE4 on myelin-associated phenotypes in human cells. Consequently, oligodendroglia/iNeuron co-cultures from two different APOE4/4 and APOE3/3 isogenic sets of iPSC-derived cells were established. […]
# To determine whether cyclodextrin-induced cholesterol reduction in APOE4 oligodendroglia affected myelination, APOE4 oligodendroglia/iNeuron co-cultures were treated with cyclodextrin for 6 weeks and then assessed myelination phenotypes (FIG. 4C). […]
# APOE4KI mice [6] = test: Cyclodextrin treatment of APOE4KI mice, brain immunohistochemistry (bodipy-cholesterol, Olig2, Mbp); type: in vivo, mouse; settings: 2 g/kg subcutaneous twice a week for eight weeks, vs saline control
# Method: It was next assessed whether cyclodextrin could reduce aberrant cholesterol accumulation in oligodendrocytes and promote increased myelination in APOE4KI mice in vivo. APOE4KI mice were treated with subcutaneous injections of cyclodextrin or saline (control) for eight weeks (n=5 control and 4 cyclodextrin treated mice). […] To more directly assess myelination in cyclodextrin treated APOE4 mice, TEM-based ultrastructural analysis was performed.
# Animals were anaesthetized via exposure to gaseous isoflurane, and transcardially perfused with ice-cold PBS. The brains were dissected out, one hemisphere frozen in dry ice, and one hemisphere drop-fixed in 4% paraformaldehyde. The post-fixed hemisphere was sliced at a thickness of 40 μm using a Leica vibratome. Slices were blocked with a buffer containing 0.3% Triton-X and 10% normal donkey serum for two hours at room temperature, before being incubated with primary antibody overnight at 4° C. Slices were then washed with PBS and incubated with secondary antibody for two hours at room temperature, washed with PBS again, and mounted. Slides were imaged using a Zeiss LSM 880 microscope, and analyzed using the ImageJ “FIJI” or Imaris softwares. Human brain tissue slices were further incubated with TrueBlack for five minutes prior to mounting, to reduce auto-fluorescence.
# as §2
# iMGLs [7] = test: Whole-cell patch-clamp of iMGLs, ATP-evoked currents; type: cell-based, human; settings: local application of 100 μM
# iMGLs [8] = test: Calcium imaging of Fluo-4 AM labeled iMGLs with compound uncaging; type: cell-based, human; settings: uncaging at 405 nm; for amplitude of calcium transients upon uncaging: 1 mM Caged NMDA or 1 mM Caged Glutamate
# [9] = test system: dissociated spheroid cultures; test: Patch-clamp electrophysiology of dissociated spheroid neurons with exogenous cholesterol; type: cell-based, human; settings: 1 mM cholesterol in external solution
# Source text: (§4) Cholesterol is essential for proper neuronal physiology, and cholesterol depletion is known to impair neurotransmission. Since we detect extracellular accumulation of cholesterol in APOE4 iMGLs, we wondered what the impact of exogenous cholesterol treatment would be to these neuronal cultures. Due to the extended culture times of spheroids, we opted to conduct these studies with excitatory neurons generated by the rapid induction of NGN2 expression. […] To further dissect the physiological process that renders neurons less excitable upon treatment with exogenous cholesterol, we next assessed iPSC-derived neurons by patch-clamp electrophysiology. […] Potentiation of Kir currents is aligned with our observation in cells recorded on MEA, as strong inwardly-rectifying potassium currents are known to hyperpolarize resting membrane potentials and decrease neuronal excitability.
# Whole-cell patch-clamp recordings of neurons were performed at 6 to 8 weeks after spheroid dissociation and 2D plating, or for iMGLs after 2 to 4 weeks of iMGL differentiation. […] Membrane potentials were typically kept between −50 mV to −70 mV depending on whether neurons or iMGLs were being recorded. In voltage-clamp mode, currents were recorded with voltage steps ranging from −160 mV to +80 mV. […] ATP-evoked currents were recorded by local application of 100 μM (Sigma-Aldrich; #A9187). […]
# [10] = test system: excitatory neurons generated by the rapid induction of NGN2 expression; test: MEA recording of NGN2-induced neurons treated with cholesterol; type: cell-based, human
# Source text: as §4
# Dissociated spheroids or NGN2-induced neurons were plated as a 10 μl droplet in Poly-D-Lysine (Sigma-Aldrich) coated wells of a CytoView MEA 48-well plate (Axion BioSystems; M768-tMEA-48B). […] Spontaneous neural activity was recorded for 30 minutes at a sampling rate of 12.5 kHz and an adaptive threshold set at 5.5 times the standard deviation of baseline noise was used for spike detection. […]
# forebrain spheroids = type: cell-based, human
molecule,measurement,setting,value
2-hydroxypropyl-β-cyclodextrin,expression of CYP46A1,CYP46A1,significant (p=0.0011) upregulation
same,total distance moved,APOE4KI mice [1]; p=0.1275,similar
same,velocity,APOE4KI mice [1]; p=0.1711,similar
same,duration in the center of the cages,APOE4KI mice [1]; p=0.4478,similar
same,total bodipy-cholesterol staining,[2],reduced bodipy-cholesterol staining that was not significantly different (p>0.9999) from that in APOE3 oligodendroglia
same,neutral lipid droplets measured by bodipy staining,[2]; cyclodextrin-treated vs control APOE4 oligodendroglia,significant (p<0.0001) reduction
same,number of intracellular droplets of bodipy-cholesterol,"[2]; cyclodextrin-treated vs control APOE4 oligodendroglia, normalized to nuclei",significant (p=0.0092) reduction
same,g-ratio,APOE4KI mice [3],significantly (p<0.0001) lower g-ratio; also recorded: decrease in g-ratio
same,preference for novel object,APOE4KI mice [4],significantly (p=0.0466) increased preference for interacting with the novel object
same,"levels of MBP localization with neurofilament, comparison with APOE3 co-cultures",[5],not significantly (p=0.0794) different from APOE3 co-cultures
same,MBP staining localized along neurofilament staining,"[5]; untreated APOE4 18.89%, APOE3 62.42%, p=0.0274",43.44%+/−5.382
same,Mbp staining,APOE4KI mice [6],significantly (p=0.0008) increased Mbp staining; also recorded: overall increase in Mbp
same,bodipy-cholesterol staining co-localizing within 1 μm of Mbp staining,APOE4KI mice [6],significant (p=0.0423) increase; also recorded: increase in cholesterol-myelin colocalization
same,bodipy-cholesterol staining accumulated around Olig2-positive nuclei,APOE4KI mice [6]; hippocampus,significantly (p=0.0038) reduced compared to control mice; also recorded: reduction of bodipy-cholesterol staining in cyclodextrin-treated mice
Nc1ncnc2c1ncn2[C@@H]1O[C@H](COP(=O)(O)OP(=O)(O)OP(=O)(O)O)[C@@H](O)[C@H]1O [ATP],"response to extracellular ATP, whole-cell patch-clamp",iMGLs [7],iMGLs sensed extracellular ATP
same,calcium transients upon ATP uncaging,iMGLs [8]; 1 mM Caged ATP,robust increase in calcium transients
CN[C@H](CC(=O)O)C(=O)O [NMDA],amplitude of calcium transients upon uncaging,iMGLs [8],increase the amplitude of calcium transients
CC(C)c1c(C(=O)Nc2ccccc2)c(-c2ccccc2)c(-c2ccc(F)cc2)n1CC[C@@H](O)C[C@@H](O)CC(=O)O [atorvastatin],total bodipy-cholesterol staining,[2],significantly (p=0.0085 and 0.0450) higher than APOE3/3 oligodendroglia
CC(C)CCC[C@@H](C)[C@H]1CC[C@H]2[C@@H]3CC=C4C[C@@H](O)CC[C@]4(C)[C@H]3CC[C@]12C [cholesterol],resting membrane potential (RMP),[9],significantly hyperpolarized the resting membrane potential
same,"I-V curve, inwardly-rectifying potassium (Kir) currents",[9]; vs non-treated neurons,greater inwardly-rectifying potassium (Kir) currents
same,neuronal activity on MEA,[10],phenocopied our observation of treatment with APOE4 iMGL conditioned media
N[C@@H](CCC(=O)O)C(=O)O [glutamate],amplitude of calcium transients upon uncaging,iMGLs [8],increase the amplitude of calcium transients
NC1=N[C@H](O)[C@H]2[C@H]3O[C@]4(O)O[C@@H]([C@@H](O)[C@@]2(N1)[C@@H]4O)[C@]3(O)CO [tetrodotoxin],increase in iMGL calcium transients mediated by stimulated spheroid media,forebrain spheroids,reduced to levels of non-stimulated spheroid media
